Data set [1] deals with SULT. The experiment in a line: DME activity in Caco-2: SULT. It is filed as in vitro ADME, human. Conditions: SULT/7-OH-Coumarin, metabolite 7-OH-Coumarin-Sulfat.
Procedure: (§2) For measurements of DME activities in EpiIntestinal microtissues and Caco-2 cells, both were cultured in 96-well Transwell inserts. Drugs (Table 1) were dissolved in the respective solvent at 200x concentration and diluted in a pre-warmed transport buffer. Diluted substrate solution was applied to the apical (100 µL) and basal (250 µL) compartment of the Transwell and incubated at 37 °C and 5% CO2 and 60 rpm continuous shaking. DME activities were determined by monitoring metabolite formation in basal compartment over time (0, 0.5, 1, 2, 3 and 4 h) with LC-MS/MS. […] Chromatographic separation of samples was performed on YMC Triart C18 (1.9 µm, 30 × 2 mm; YMC Europe, Dinslaken, Germany) LC analytical column. Quantification of all metabolites listed in Table 1 was achieved by the use of calibration curves for the individual metabolites with appropriate concentration ranges.
(§3) A total of 10 µL of the incubation sample were diluted with 90 µL of water containing 10–20% ACN or methanol, 0.1% formic acid and the respective internal standard. To analyze the intracellular metabolite concentration, cells on Transwell inserts were washed twice with ice-cold PBS and stored at −80 °C for 20 min. Afterwards, 150 µL 50% ACN diluted with transport buffer was added to the cells and incubated at room temperature for 30 min. […]
In data set [2] the test system is UGT. The experiment in a line: DME activity in EpiIntestinal microtissues: UGT. The format is in vitro ADME, human. Conditions: UGT/7-OH-Coumarin, metabolite 7-OH-Coumarin-Glucuronid.
Procedure: as §2, §3
Data set [3] deals with UGT. The experiment in a line: DME activity in Caco-2: UGT. The format is in vitro ADME, human. Conditions: UGT/7-OH-Coumarin, metabolite 7-OH-Coumarin-Glucuronid.
Procedure: as §2, §3
The test system of data set [4] is SULT. Put plainly: DME activity in EpiIntestinal microtissues: SULT. It is filed as in vitro ADME, human. Conditions: SULT/7-OH-Coumarin, metabolite 7-OH-Coumarin-Sulfat.
Procedure: as §2, §3
The nature of another data set: in vitro. Conditions: human, blood.
For data set [5] the following is noted: human, clinical; cited from earlier work.
The subject of data set [6] is EpiIntestinal microtissues. Put plainly: Bidirectional permeability assay in EpiIntestinal microtissues. The format is in vitro ADME, human. On the procedure: Caco-2 cells were obtained from Leibniz Institute DSMZ-German Collection of Microorganisms and Cell Cultures (Braunschweig, Germany) and cultured in DMEM containing 10% FCS, 1% NEAA, 2 mM Glutamin, 100 U/mL Penicillin and 100 µg/mL Streptomycin. […] EpiIntestinal microtissues were obtained from MatTek (Bratislav, Slovakia) and cultured according to the manufacturer’s instruction (24-well format for bidirectional permeability assays and GI firstpass availability assays and 96-well format for screening of DME activities).
Bidirectional permeability assays were performed as described previously. […] In indicated experiments, inhibitors were added to both compartments. Cells were incubated with the compounds for up to 2 h. Samples from the opposite compartment were taken at different timepoints. […] Prior to bioanalysis samples were spiked with internal standard solution and diluted with acetonitrile (ACN) for protein precipitation. Measurement was operated in multiple reaction monitoring (MRM) mode. Quantification was performed using external calibration. Apparent permeability coefficients in the apical to basal direction (Papp,AB) and in the basal to apical direction (Papp,BA) and efflux were calculated as follows Papp,AB=QAB/(C0×s×t) Papp,BA=QBA/(C0×s×t) Efflux=Papp,BA/Papp,AB where Q is the amount of compound recovered in the receiver compartment after the incubation time t, C0 the initial compound concentration given to the donor compartment, and s the surface area of the Transwell inserts. Efflux ratio is calculated as the quotient of Papp,BA to Papp,AB. […] In addition, Transepithelial electrical resistance (TEER) values are measured for each plate before the permeability assay and total recovery in donor and receiver compartments was determined for each compound. All these parameters (efflux of apafant, Papp values of the low permeable compound, TEER values, and total recovery) are used to ensure the quality of the assays.

Data set [7] can be described thus: Intestinal first-pass availability in EpiIntestinal microtissues. It is filed as in vitro ADME, human. Conditions: human, EpiIntestinal microtissues, 10 µM apical, GI firstpass availability, read-out: Recovery in Basal Comp. @ 24h (%). On the procedure: Compounds were diluted in culture media to a final concentration of 10 µM and added to the apical (donor) compartment (total volume: 100 µL for EpiIntestinal and 200 µL for Caco-2). After the incubation at 37 °C for 2, 4, 6, and 24 h, samples (50 µL) were taken from the basal (receiver) compartment (total volume: 5000 µL for EpiIntestinal and 800 µL for Caco-2). After the last timepoint, samples from the donor compartments and the cell lysates were also collected. Compound concentrations in the samples were determined by HPLC-MS/MS (Section 2.3).
GI first-pass availability of the tested compounds was expressed as fraction (%) of the total amount of a compound added to the donor compartment recovered in the receiver compartment.

In another data set the test system is Caco-2 cells. The experiment in a line: Bidirectional permeability assay in Caco-2. It is filed as in vitro ADME, human. As to conditions: with P-gp inhibitor Zosuqidar (5 µM). On the technique in general: Passage across Caco-2 layers is used to estimate intestinal permeability.
The subject of a further data set is BCRP. Put plainly: Bidirectional permeability assay in Caco-2. Conditions: human, pH 7.4, with Ko-143 (3 µM), with BCRP inhibitor Ko-143 (3 µM). The format is in vitro ADME, human.
The subject of the next data set is P-gp. Put plainly: Bidirectional permeability assay in Caco-2. As to conditions: human, pH 7.4, with Zosuqidar (5 µM), with P-gp inhibitor Zosuqidar (5 µM). It is filed as in vitro ADME, human.
Data set [8] in a line: Bidirectional permeability assay in Caco-2. The format is in vitro ADME, human. As to conditions: human, no inhibitor, mean of duplicates.
Data set [9] has as its system CES1 and CES2. Put plainly: CES-mediated metabolism of dabigatran etexilate in human intestinal mucosa (HIM). The format is in vitro ADME. Conditions: human intestinal mucosa in suspension; 2 µM. On the procedure: (§1) CES-mediated metabolism of dabigatran etexilate was measured in cryopreserved human hepatocytes (BioIVT, West Sussex, UK) and cryopreserved human intestinal mucosa (in vitro ADMET laboratories, Columbia, MD, USA) in suspension and in Caco-2 cells and EpiIntestinal microtissues grown on Transwell inserts. Dabigatran etexilate was diluted in culture media for the respective cells or tissues. The final concentrations of dabigatran etexilate were selected in an earlier experiment to ensure reasonable turnover of the compound within the incubation time: 2 µM for hepatocytes and intestinal mucosa, 10 µM for Caco-2 and EpiIntestinal microtissues. In the experiments with Transwell inserts, dabigatran etexilate was given to the apical compartments, metabolites were measured in the basal (receiver) compartments. Concentrations of the metabolites were determined by HPLC-MS/MS (Section 2.3).

In data set [10] the test system is CES1 and CES2. The experiment in a line: CES-mediated metabolism of dabigatran etexilate in human hepatocytes (huHEP). It is filed as in vitro ADME. Conditions: human hepatocytes in suspension; 2 µM. Here is the method: as §1
The test system of data set [11] is CES1 and CES2. Put plainly: CES-mediated metabolism of dabigatran etexilate in Caco-2 cells. The format is in vitro ADME, human. As to conditions: Caco-2 on Transwell; 10 µM apical; basal compartment. Here is the method: as §1
Data set [12] relates to CES1 and CES2. Put plainly: CES-mediated metabolism of dabigatran etexilate in EpiIntestinal microtissues. It is filed as in vitro ADME, human. As to conditions: EpiIntestinal on Transwell; 10 µM apical; basal compartment. Here is the method: as §1
The target of data set [13] is T1, CYP2D6 (Homo sapiens, UniProt P10635).
T1 construct: endogenous in cells; host or cells: Caco-2 cells in 96-well Transwell inserts
The experiment in a line: DME activity in EpiIntestinal microtissues: CYP2D6. The format is in vitro ADME. As to conditions: CYP2D6/Dextromethorphan, metabolite Dextrorphan.
Procedure: as §2, §3

Data set [14] addresses T1, CYP2D6. Put plainly: DME activity in Caco-2: CYP2D6. The format is in vitro ADME. Conditions: CYP2D6/Dextromethorphan, metabolite Dextrorphan.
Procedure: as §2, §3
Setting [15] is: with BCRP inhibitor Ko-143 (3 µM).
The mark [16] stands for this setting: with P-gp inhibitor Zosuqidar (5 µM).

T1 sequence (P10635 whole entry): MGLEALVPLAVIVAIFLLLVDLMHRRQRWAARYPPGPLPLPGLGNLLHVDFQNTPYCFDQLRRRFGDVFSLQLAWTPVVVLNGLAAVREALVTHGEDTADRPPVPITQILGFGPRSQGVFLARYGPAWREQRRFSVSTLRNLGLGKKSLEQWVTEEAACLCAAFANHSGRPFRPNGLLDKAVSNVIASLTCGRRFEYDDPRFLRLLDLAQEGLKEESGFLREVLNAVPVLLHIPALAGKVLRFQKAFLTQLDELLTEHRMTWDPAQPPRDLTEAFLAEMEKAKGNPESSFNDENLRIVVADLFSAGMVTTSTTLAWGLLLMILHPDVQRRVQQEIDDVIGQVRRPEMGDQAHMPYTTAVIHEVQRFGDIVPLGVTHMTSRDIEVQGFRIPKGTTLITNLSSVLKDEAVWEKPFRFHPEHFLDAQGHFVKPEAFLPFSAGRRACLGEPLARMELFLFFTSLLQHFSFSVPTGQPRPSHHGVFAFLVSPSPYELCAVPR
Source text for in vitro: Blood CLb can be converted from plasma clearance CLp with the blood-to-plasma ratio RB: CLb=CLp/RB

Consider `O=c1ccc2ccc(O)cc2o1` [7-OH-Coumarin], for which the “Intracellular Metabolite (% of Total)” value in the data set with SULT [1] was “BLQ”; in the data set with UGT [2], 10.0 % of Total; in the data set on UGT [3], 5.5 % of Total; in the data set on SULT [4], 3.4 % of Total.
On to `CC(C)c1nc(N(C)S(C)(=O)=O)nc(-c2ccc(F)cc2)c1/C=C/[C@@H](O)C[C@@H](O)CC(=O)O` [Rosuvastatin], for which the blood plasma ratio in the data set “in vitro” worked out at 0.75. Besides, in [5], the “F (total oral availability)” value is 0.2 [8]. Moreover, the “fe (fraction of renal excretion)” value in data set [5] is 0.3 [23]. The Efflux in data set [6] (Papp,BA/Papp,AB, no inhibitor, mean of triplicates) was found to be 100.0; in [6] (setting [15]) it was 3.1; in data set [6] (setting [16]), 25. Moreover, the PappAB in data set [6] (setting [15]) is 2.6 10^−6 cm/s; in data set [6] (setting [16]), 0.9 10^−6 cm/s; in the data set on Caco-2 cells it was 0.3 10^−6 cm/s. Besides, the recovery at 24 h, 10 µM in [7] was determined as 30%. Moreover, the efflux ratio at 10 µM in the data set with BCRP worked out at 5.5; with P-gp, 19; in data set [8] (pH 7.4, Papp,BA/Papp,AB) it was 21. The compound also gave a Papp A→B at 10 µM in data set [8] (pH 7.4, 10 µM) of 0.3 ×10⁻⁶ cm/s.
In the case of `CCCCCCOC(=O)NC(=N)c1ccc(NCc2nc3cc(C(=O)N(CCC(=O)OCC)c4ccccn4)ccc3n2C)cc1` [dabigatran etexilate], the “Main metabolite of dabigatran etexilate” value with CES1 and CES2 [9] is listed as “BIBR 951”; in the data set on CES1 and CES2 [10], “BIBR 1087”; in the data set with CES1 and CES2 [11] it was “BIBR 1087”; in the data set with CES1 and CES2 [12], “BIBR 953”.
For `COc1ccc2c(c1)[C@]13CCCC[C@@H]1[C@H](C2)N(C)CC3` [Dextromethorphan], the “Intracellular Metabolite (% of Total)” value on CYP2D6 [13] and on CYP2D6 [14] was “BLQ” each time.

A word on the efflux ratio: it is a quotient of directional permeabilities that is used to spot active efflux. As usually defined, the Papp A→B is how fast a substance crosses the layer from the apical side. Low readings indicate slow passage, high ones fast passage.

The record behind these values is publication PMC7284918, “In-Depth Characterization of EpiIntestinal Microtissue as a Model for Intestinal Drug Absorption and Metabolism in Human” (Pharmaceutics, 2020).
